Measurements taken from PubChem BioAssay AID624344 (Sanford-Burnham Center for Chemical Genomics, 2012).
Activity calls are given as the source filed them. The rule behind the calls is not given here.

Tests used:
[1] = NFkB reporter suppression in cystic fibrosis bronchial cells – cell-based, uHTS hits, panel, cytotoxicity readout, dose response (AID 624344); conditions: CF bronchial epithelial cells, PAF-induced NFkB reporter inhibition; with PAF, mean of runs
Cytotoxicity = assay: as above; conditions: CF bronchial epithelial cells, mean of runs

| Structure (SMILES) | IC50 [1] | IC50 (Cytotoxicity) |
| --- | --- | --- |
| C[C@@H]1CN([C@H](C)CO)C(=O)c2cc(NC(=O)Nc3ccc(C(F)(F)F)cc3)ccc2O[C@H]1CN(C)S(=O)(=O)c1cccs1 | 5.41 µM | 54.9 µM (inactive) |
| CN1CCN(c2ncnc3scc(-c4ccccc4Cl)c23)CC1 | 3.89 µM | 57.2 µM (inactive) |
| CCc1nccn1C(=O)c1cnn2c(C(F)F)cc(-c3ccc(C)cc3)nc12 | 3.86 µM | 6.64 µM |
| CC1C(=O)N(Cc2cn(Cc3ccco3)nn2)CCS(=O)(=O)N1Cc1ccc(-c2ccccc2C(F)(F)F)cc1 (stereo not drawn) | 14 µM | 57.4 µM (inactive) |
| Cc1nc(N)c(C#N)c(-c2cccnc2)c1-c1ccccc1 | 4.45 µM | 62.9 µM (inactive) |
| CCOC(=O)/C=c1/s/c(=C\c2c(OC)ccc3ccccc23)c(=O)n1CC(=O)NCC1CCCO1 (stereo not drawn) | > 79 µM (inactive) | > 79 µM (inactive) |
| COc1ccc(C2=Nn3c(nnc3-c3ccncc3)SC2)cc1 | 2.72 µM | 40 µM |
| CC[C@@H](C(=O)[C@@H](C)[C@@H](O)[C@H](C)[C@@H]1O[C@@H]([C@@H](CC)C(=O)O)CC[C@@H]1C)[C@H]1O[C@]2(C=C[C@@H](O)[C@]3(CC[C@@](C)([C@H]4CC[C@](O)(CC)[C@H](C)O4)O3)O2)[C@H](C)C[C@@H]1C | 0.399 µM | 2.36 µM |
| COc1ccc(COc2cc(-c3cccc(OC)c3)nc3ccc(NC(=O)c4cccnc4)cc23)cc1 | 4.27 µM | 11.5 µM |
| O=C(NNc1ccccc1Br)C(O)(c1cccc(C(F)(F)F)c1)c1cccc(C(F)(F)F)c1 | 5.72 µM | 7.73 µM |
| COc1ccc(-c2cc(NC=O)c3ncc(-c4ccc(OC)c(OC)c4)n3c2)c(OC)c1 | 11.7 µM | 29.8 µM |
| Cc1ccnc(NC(=O)Cc2ccc(-c3ccccc3)cc2)c1 | 9.06 µM | 47.8 µM |
| O=C(CCC1COc2ccccc2O1)Nc1ccc(Cl)cn1 (stereo not drawn) | 10.2 µM | 50.9 µM (inactive) |
| O=S1(=O)CCC(NC(=S)SCCOc2ccccc2)C1 (stereo not drawn) | 4.58 µM | 20.1 µM |
| c1csc(CNc2ncnc3ccc(-c4ccoc4)cc23)c1 | 0.194 µM | 7.68 µM |
| Cc1cccc(N=c2oc3cc(O)ccc3cc2C(N)=O)c1 | 2.77 µM | 45.3 µM |
| Cc1cccc(NS(=O)(=O)c2ccc(-c3cnc(C4CC4)o3)cc2)c1C | 6.37 µM | 56.2 µM (inactive) |
| CCOc1ccc(NCc2cc3c(C(C)(C)C)nn(-c4ccccc4)c3[nH]c2=O)cc1 | 7.26 µM | 27.4 µM |
| c1ccc(-c2nc3nonc3nc2-c2ccccc2)cc1 | 12.2 µM | 45.4 µM |
| CCC(=O)c1ccc(O)c(CC=C(C)C)c1 | 5.27 µM | 60.1 µM (inactive) |
| CCCCCOC(=O)c1[nH]c2c(c1C)C(=O)CC(c1ccco1)C2 (stereo not drawn) | 10.8 µM | > 79 µM (inactive) |
| O=C1C(=Cc2ccccc2[N+](=O)[O-])Cc2ccccc21 | 6.36 µM | 8.65 µM |
| Oc1ccc(Nc2ncnc3scc(-c4ccccc4)c23)cc1 | 12.6 µM | 48.7 µM |
| COC(=O)N1C(=O)[C@@](c2ccc(OC)cc2)(C(C)C)N1C(=O)OC | 4.72 µM | 49.1 µM |
| C=CC[C@@H](CC(=O)N(CCO)Cc1ccccc1)C(=O)NC[C@H](OC(=O)[C@@H](CC=C)Cc1ccc(F)cc1)c1ccccc1 | 4.05 µM | 4.23 µM |
| O=C(NCCCSc1ccccc1)c1cc(Br)ccc1O | 4.8 µM | 3.05 µM |
| Cc1ccc2c(c1)C(=O)C(=O)N2Cc1ccc(C(F)(F)F)cc1 | inactive | > 79 µM (inactive) |
| FC(F)Sc1ccc(NC(=S)NC(c2ccccc2)c2ccccc2)cc1 | 6.53 µM | 9.19 µM |
| COc1ccc(C[C@H]2NC[C@H](O)[C@H]2OC(C)=O)cc1 | 0.155 µM | 0.799 µM |
